From patent publication US7291738B2 (dated 2007)

melting point	SMILES
173 to 175 °C	Cc1ncccc1Oc1ccc(NC(=O)Nc2ccc3[nH]c4c(c3c2)CCN(C(=O)OC(C)(C)C)CC4)cn1
205 to 207 °C	Cc1ncccc1Oc1ccc(NC(=O)Nc2ccc3[nH]c4c(c3c2)CCNCC4)cn1
159 to 160 °C	Cc1ncccc1Oc1ccc(NC(=O)N2CCc3c(n(C)c4ccccc34)CC2)cn1
136 to 138 °C	Cc1ncccc1Oc1ccc(NC(=O)NCCc2ccccc2)cn1
